Structures are written as SMILES.

The experiment relates to Matsutake hyphae (strain Tm 89). Put plainly: Growth of Matsutake hyphae in soil containing Tween 80 additive, determined by ergosterol amount. The class given is cell-based, Tricholoma Matsutake. The note with it: Tween 80 additive 1, 2 or 5 wt % vs 0 wt %, 20 wt % of soil, one month incubation at 25±1° C. in the dark, FIG. 1. As for the experimental part:
The culture substrate containing an active principle prepared as described above is put into a sterile container (a Petri-dish, etc.). A hypha solution containing Matsutake hyphae is inoculated into the culture substrate in the sterile container such that the hypha solution is spread throughout the culture substrate. Culture of Matsutake hyphae can be performed at 25±1° C. in the dark. After 1 to 3 month's culture of Matsutake hyphae, a piece of the grown hyphae (i.e., a Shiro) are taken as a sample, and the growth amount of the hyphae is determined based on the amount of ergosterol. Ergosterol can be quantified as follows. After a sample of a Shiro is freeze-dried (EYELA, FDU-830), 1 g of the sample is taken and extracted with 2.5 mL of ethanol (99.5%). The obtained extract is loaded into HPLC (high-performance liquid chromatography; HITACHI, Column L-7300; UV Detector L-7400; Autosampler L-7200; Pump L-7100; Integrator D-7500) to quantify the amount of ergosterol in the extract. With respect to the details of the quantification procedure, reference should be made to Martin et al. (1990) Mycol. Res. 94: 1059-1064. About one week after the initiation of the culture, it is observed that the hyphae are grown on the surface of the culture substrate. About 4 weeks after the initiation of the culture, increase in the growth amount of the hyphae is found. […]

Take `CCCCCCCC/C=C\CCCCCCCC(=O)OCCOCC(OCCO)C1OCC(OCCO)C1OCCO` (stereo not shown) [Tween 80, Polyoxyethylene (20) Sorbitan Monooleate]: the “growth of Matsutake hyphae (amount of ergosterol)” value is “significantly enhanced”.

(Values after US6803226B2, “Method of forming an artificial Shiro of Matsutake” (The University of Tokyo, priority 2001, dated 2004).)
